Laboratory results reported in article PMC9950073, “Alleviation of arthritis through prevention of neutrophil extracellular traps by an orally available inhibitor of protein arginine deiminase 4” (Scientific Reports, 2023).

Assays:
human recombinant PAD3 = target: T1, human recombinant PAD3 (Homo sapiens, UniProt Q9ULW8); assay: PAD3 selectivity biochemical assay measuring ammonia release; details: 10 semi-log concentrations, highest concentration tested 30 µM
T1 construct: purchased Cayman Chemicals 10786
T1 sequence (Q9ULW8 1-664): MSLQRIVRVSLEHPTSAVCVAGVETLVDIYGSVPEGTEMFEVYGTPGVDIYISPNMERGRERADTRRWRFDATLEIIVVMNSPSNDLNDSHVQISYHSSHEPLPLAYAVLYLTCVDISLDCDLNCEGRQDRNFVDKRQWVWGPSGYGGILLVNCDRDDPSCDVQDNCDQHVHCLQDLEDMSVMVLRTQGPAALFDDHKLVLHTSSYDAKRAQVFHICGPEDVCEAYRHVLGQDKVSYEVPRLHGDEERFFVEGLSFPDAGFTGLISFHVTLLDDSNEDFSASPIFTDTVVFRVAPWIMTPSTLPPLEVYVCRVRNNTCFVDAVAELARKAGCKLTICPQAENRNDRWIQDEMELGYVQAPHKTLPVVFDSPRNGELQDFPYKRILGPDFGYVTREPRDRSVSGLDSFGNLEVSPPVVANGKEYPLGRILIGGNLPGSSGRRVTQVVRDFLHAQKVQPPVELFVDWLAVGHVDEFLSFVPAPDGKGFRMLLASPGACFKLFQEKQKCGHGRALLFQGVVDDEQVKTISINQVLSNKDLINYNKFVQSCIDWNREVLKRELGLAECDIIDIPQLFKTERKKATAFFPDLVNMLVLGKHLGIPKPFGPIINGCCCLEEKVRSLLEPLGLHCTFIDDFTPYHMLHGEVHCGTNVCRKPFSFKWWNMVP

[1] = Plasma protein binding (equilibrium dialysis); format: in vitro ADME; details: pH 7.4, plasma across species, read-out: PPB (% unbound)
Protocol: Plasma protein binding: 10 µM of JBI-589 was mixed with plasma from different species (in sodium phosphate buffer, pH 7.4) was added to the plasma side of the 96-well micro-equilibrium dialysis device and sodium phosphate buffer (pH 7.4) was added to the other half of the device. The device was incubated at 37 ± 1 °C for 14 h with constant shaking. After the incubation time, plasma and buffer were collected from either side, quenched (0.5% formic acid in internal standard (IS) containing ACN), centrifuged and supernatant was used for LC–MS/MS analysis. Percent of unbound compound was calculated as follows: Percent unbound: [peak area ratio in buffer side/dilution factor]/peak area ratio in plasma side × 100; Peak area ratio: compound peak area/internal standard peak area.

CYP3A4 = target: T2, CYP3A4 (Homo sapiens, UniProt P08684); assay: CYP inhibition in human liver microsome, CYP3A4; format: in vitro ADME
T2 construct: from tissue; host or cells: human liver microsomes
Protocol: CYP inhibition: Human liver microsome (0.1–0.5 mg/mL for various CYPs) and appropriate probe substrates (2.5–20 µM) were incubated in potassium phosphate buffer with or without JBI-589 for 5 min at 37 °C. The reaction was initiated by addition of NADPH (1 mM), incubated at 37 °C for 10 min and quenched (0.5% Formic acid in internal standard (IS) containing ACN). Samples were then centrifuged and taken for LC–MS/MS analysis. Percent change in metabolite formation for each substrate under above conditions using formula: Percent inhibition = [1 − (test area ratio/control area ratio)] *100.

human neutrophils = assay: In vitro NET assay, human neutrophils; format: cell-based; details: 10 μM, ionomycin 4 µM 4 h
From the text: All blood samples from healthy donors who participated in this study were obtained after informed consent in accordance with relevant guidelines and regulations given by the ACE Independent ethics committee for Jubilant Biosys Ltd and Office of Clinical Investigations at Boston Children’s Hospital. The ACE Independent ethics committee, Bangalore, approved the use of human whole blood/PBMC/Enriched Subset in Jubilant Biosys Ltd investigations, Drug Controller General of India (DCGI) Reg No. ECR/141/Indt/KA/2013. Briefly, 10 mL K2EDTA vacutainers were used to collect fresh blood from healthy donors (BD vacutainer, Catalog No: BD 367525). A total of 50 ml of blood was taken from a single, healthy human donor. Neutrophils were isolated from human blood using the EasySep Direct Human Neutrophil Isolation Kit, according to the manufacturer's instructions (Stem Cell Technology, Catalog No: 19666). […]
Mouse or human neutrophils were resuspended in HEPES-supplemented phenol red-free RPMI1640 medium and 1.5 × 10^4 cells were seeded per well in a 96-well plate. […] Images were obtained with a Zeiss Axiovert 200 M wide-field fluorescence microscope (Zeiss, Oberkochen, Germany) with the Zeiss AxioVision software. The percentages of H4Cit positive neutrophils and neutrophil extracellular traps (NETs) were calculated by quantifying more than 200 randomly selected cells. […]

mouse neutrophils = assay: NET formation assay on neutrophils isolated from orally dosed mice; format: in vivo; details: 50 mg/kg orally for seven consecutive days
Protocol: To determine the effects of JBI-589 on NET formation, an in vitro NET assay was performed. In mouse neutrophils, ionomycin stimulation induced more than 90% of H4Cit-positivity and NET formation in approximately 15% of neutrophils. […] To evaluate the in vivo effects, JBI-589 at 50 mg/kg or vehicle (water) was orally administered twice daily for seven consecutive days. Four hours after the last administration, mouse neutrophils were isolated, and then a NET formation assay was performed.
Mouse peripheral blood was collected by retro-orbital puncture in ethylenediaminetetraacetic acid (EDTA) anticoagulated buffer supplemented with 1% endotoxin-free BSA in sterile PBS. Neutrophils were isolated by Percoll gradient centrifugation as described previously. The purity of neutrophils was more than 90% as confirmed by the Wright-Giemsa stain.
Mouse or human neutrophils were resuspended in HEPES-supplemented phenol red-free RPMI1640 medium and 1.5 × 10^4 cells were seeded per well in a 96-well plate. After incubating for 20 min at 37 °C and 5% CO2, the cells were stimulated with vehicle control or ionomycin (Sigma, Catalog No: I24222) (4 µM) for 4 h. Neutrophils were fixed with 4% paraformaldehyde (PFA), washed and permeabilized (0.1% Triton X-100, 0.1% sodium citrate) for 10 min at 4 °C. Subsequently, neutrophils were incubated with blocking buffer (2.5% BSA, 0.5% Tween-20 in 1 × PBS) at room temperature for an hour followed by overnight incubation with the primary antibody against citrullinated histone H4 (H4Cit, 1:250, catalog number: 07-596, Millipore, Burlington, MA). After washing 3 times with PBS, neutrophils were incubated with Hoechst 33342 (1:10,000, catalog number: H3570, Invitrogen). Images were obtained with a Zeiss Axiovert 200 M wide-field fluorescence microscope (Zeiss, Oberkochen, Germany) with the Zeiss AxioVision software. The percentages of H4Cit positive neutrophils and neutrophil extracellular traps (NETs) were calculated by quantifying more than 200 randomly selected cells. […]

[2] = neutrophils isolated 4 h after last administration, ionomycin 4 µM

T2 sequence (P08684 whole entry): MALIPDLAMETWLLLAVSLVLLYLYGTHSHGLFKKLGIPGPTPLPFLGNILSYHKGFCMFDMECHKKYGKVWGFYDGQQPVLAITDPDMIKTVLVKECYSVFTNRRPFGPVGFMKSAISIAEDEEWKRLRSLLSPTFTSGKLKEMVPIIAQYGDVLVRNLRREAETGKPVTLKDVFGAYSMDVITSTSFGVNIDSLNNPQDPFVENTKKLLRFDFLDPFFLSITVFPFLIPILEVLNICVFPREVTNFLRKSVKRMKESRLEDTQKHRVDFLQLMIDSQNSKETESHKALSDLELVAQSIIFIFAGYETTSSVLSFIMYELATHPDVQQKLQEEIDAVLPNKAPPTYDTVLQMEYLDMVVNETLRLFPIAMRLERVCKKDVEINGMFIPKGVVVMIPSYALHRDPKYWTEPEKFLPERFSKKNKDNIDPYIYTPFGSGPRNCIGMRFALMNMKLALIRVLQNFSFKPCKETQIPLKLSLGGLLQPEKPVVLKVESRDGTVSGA

- inhibitory activity against PAD3 (human recombinant PAD3): did not have any inhibitory activity
- fraction unbound at 14 h, 10 µM [1]: 0.05 to 0.1
- inhibition at 10 min, 10 µM (CYP3A4; human liver microsomes, 10 µM, human liver microsome, read-out: CYP3A4 inhibition (% inh @10 µM)): < 50%
- IC50 (CYP3A4; predicted from % inhibition, text says major CYPs tested): > 10 µM
Structure (SMILES): Cc1c(-c2cc3ccccc3n2Cc2ccc(F)cc2)nc2cc(C(=O)N3CCC[C@@H](N)C3)ccn12 [JBI-589, (R)-(3-aminopiperidin-1-yl)(2-(1-(4-fluorobenzyl)-1H-indol-2-yl)-3-methylimidazo[1,2-a]pyridin-7-yl)methanone]
- H4Cit positivity (human neutrophils): the same effect was confirmed
- NET formation (human neutrophils): the same effect was confirmed
- H4Cit positivity compared with vehicle (mouse neutrophils; [2]): reduced both H4Cit positivity and NET formation significantly
- NET formation compared with vehicle (mouse neutrophils; [2]): reduced both H4Cit positivity and NET formation significantly
- percentage of H4Cit positive cells (mouse neutrophils; vehicle 88%, p = 0.01): 83%
